This note sets out measurements from the NIST ThermoML archive (doi:10.1016/j.jct.2013.08.021).

Numbers after ± are expanded uncertainties.

Data set [1] can be described thus: refractive index (Na D-line) (dimensionless); xn = mol fraction of the nth substance listed. Conditions: 101 kPa, Liquid, Standard Abbe refractometry, x1 = 1.
The nature of data set [2]: xn = mol fraction of the nth substance listed. As to conditions: 101 kPa, Liquid, x1 = 1; for speed of sound: Sing-around technique in a fixed-path interferometer; for mass density: Vibrating tube method.
The conditions of data set [3]: 101 kPa, Liquid; for speed of sound: Sing-around technique in a fixed-path interferometer; for mass density: Vibrating tube method.
Data set [4] in a line: refractive index (Na D-line) (dimensionless). As to conditions: 101.33 kPa, Liquid, Standard Abbe refractometry.

Regarding `CO` [methanol] + CCC[N+]1(C)CCCC1.O=S(=O)([N-]S(=O)(=O)C(F)(F)F)C(F)(F)F, the refractive index is recorded as 1.3265 ± 0.00031 in data set [1] (298.15 K), 1.32452 ± 0.00031 in data set [1] (303.15 K) and 1.32254 ± 0.00031 in data set [1] (308.15 K). Also, the speed of sound in data set [2] (298.15 K) stood at 1102.7 ± 1.1 m/s; in data set [2] (303.15 K), 1086.3 ± 1.1 m/s; in data set [2] (308.15 K), 1070.1 ± 1.1 m/s. For the same compound, the mass density in data set [2] (298.15 K) is reported as 786.66 ± 0.15 kg/m3; in data set [2] (303.15 K), 781.95 ± 0.15 kg/m3; in data set [2] (308.15 K) it was 777.2 ± 0.15 kg/m3.

For `CCCO` [propan-1-ol], the results for the speed of sound in data set [3] (298.15 K), in data set [3] (303.15 K) and in data set [3] (308.15 K) were 1206.6 ± 1.2 m/s, 1189.5 ± 1.2 m/s and 1172.4 ± 1.2 m/s, respectively. For the same compound, the mass density in data set [3] (298.15 K) was 799.87 ± 0.14 kg/m3; in data set [3] (303.15 K) it was 795.94 ± 0.14 kg/m3; in data set [3] (308.15 K) it was 791.78 ± 0.15 kg/m3. Moreover, the refractive index was 1.38309 ± 0.00031 in data set [4] (298.15 K), 1.38106 ± 0.00031 in data set [4] (303.15 K) and 1.37894 ± 0.00031 in data set [4] (308.15 K).

Consider `CO` [methanol], for which the speed of sound in data set [3] (298.15 K) stood at 1102.7 ± 1.1 m/s; in data set [3] (303.15 K) it was 1086.3 ± 1.1 m/s; in data set [3] (308.15 K), 1070.1 ± 1.1 m/s. Further, the mass density is 786.66 ± 0.15 kg/m3 in data set [3] (298.15 K), 781.95 ± 0.15 kg/m3 in data set [3] (303.15 K) and 777.2 ± 0.15 kg/m3 in data set [3] (308.15 K). The refractive index is on record as 1.3265 ± 0.00031 in data set [4] (298.15 K), 1.32452 ± 0.00031 in data set [4] (303.15 K) and 1.32254 ± 0.00031 in data set [4] (308.15 K).

Turning to `CCO` [ethanol] + CCC[N+]1(C)CCCC1.O=S(=O)([N-]S(=O)(=O)C(F)(F)F)C(F)(F)F, the refractive index in data set [1] (298.15 K) was found to be 1.35932 ± 0.00031; in data set [1] (303.15 K), 1.35728 ± 0.00031; in data set [1] (308.15 K), 1.35519 ± 0.00031. For the same compound, the speed of sound is 1143.9 ± 1.1 m/s in data set [2] (298.15 K), 1128 ± 1.1 m/s in data set [2] (303.15 K) and 1111.8 ± 1.1 m/s in data set [2] (308.15 K). Moreover, the mass density is on record as 785.48 ± 0.15 kg/m3 in data set [2] (298.15 K), 781.16 ± 0.15 kg/m3 in data set [2] (303.15 K) and 776.81 ± 0.15 kg/m3 in data set [2] (308.15 K).

Regarding `CCCO` [propan-1-ol] + CCC[N+]1(C)CCCC1.O=S(=O)([N-]S(=O)(=O)C(F)(F)F)C(F)(F)F, the refractive index was 1.38309 ± 0.00031 in data set [1] (298.15 K), 1.38106 ± 0.00031 in data set [1] (303.15 K) and 1.37894 ± 0.00031 in data set [1] (308.15 K). In addition, the speed of sound was 1206.6 ± 1.2 m/s in data set [2] (298.15 K), 1189.5 ± 1.2 m/s in data set [2] (303.15 K) and 1172.4 ± 1.2 m/s in data set [2] (308.15 K). Moreover, the mass density in data set [2] (298.15 K) is reported as 799.87 ± 0.14 kg/m3; in data set [2] (303.15 K) it was 795.94 ± 0.14 kg/m3; in data set [2] (308.15 K), 791.78 ± 0.15 kg/m3.

On to `CCO` [ethanol], for which the speed of sound was found to be 1143.9 ± 1.1 m/s in data set [3] (298.15 K), 1128 ± 1.1 m/s in data set [3] (303.15 K) and 1111.8 ± 1.1 m/s in data set [3] (308.15 K). The mass density is given as 785.48 ± 0.15 kg/m3 in data set [3] (298.15 K), 781.16 ± 0.15 kg/m3 in data set [3] (303.15 K) and 776.81 ± 0.15 kg/m3 in data set [3] (308.15 K). For the same compound, the refractive index in data set [4] (298.15 K) is 1.35932 ± 0.00031; in data set [4] (303.15 K), 1.35728 ± 0.00031; in data set [4] (308.15 K), 1.35519 ± 0.00031.
